The test system of assay [1] is Table apple, type Zabergäu-Renette (C2). Put plainly: Greenhouse test, cut apple branches C2 dipped in test solution, bud development stage. It counts as in vivo, Malus domestica. More on the design: key to Bud development stage, apple branches C2: Stage 0: Buds unchanged; Stage 1: Buds slightly swollen, first green tips visible; Stage 2: strongly swollen, green buds; Stage 3: Buds before breaking open, leaf or flower root already visible; Stage 4: Flower buds fully developed, but still closed, white petals already visible. In the case of the grapevine, stage 4 was the unfolding of the first leaves; Stage 5: Flowers fully open or, in the case of grapevine, unfolding of the flower roots (“Gescheine”) on the fully leafed sprouts. An outline of the steps: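 Cut branches held in water jars in a greenhouse at about 22° C. under natural light after dipping in aqueous test solution: 0.15 mol substance (0.075 mol for bis-cyanamides) plus 0.15 g BreakThru OE-446 per 500 g. Bud development scored on a stage scale from closed buds to fully open flowers.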

Assay [2] relates to Table cherry, type Burlat (C3). Put plainly: Greenhouse test, cut cherry branches C3 dipped in test solution, bud development stage. Set-up: key to Bud development stage, cherry branches C3: Stage 0: Buds unchanged; Stage 1: Buds slightly swollen, first green tips visible; Stage 2: strongly swollen, green buds; Stage 3: Buds before breaking open, leaf or flower root already visible; Stage 4: Flower buds fully developed, but still closed, white petals already visible. In the case of the grapevine, stage 4 was the unfolding of the first leaves; Stage 5: Flowers fully open or, in the case of grapevine, unfolding of the flower roots (“Gescheine”) on the fully leafed sprouts. Format: in vivo, Prunus avium. In short, it runs like this:
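Cut branches kept in water jars in a greenhouse at about 22° C. under natural light after dipping in aqueous solution of 0.15 mol test substance (0.075 mol for bis-cyanamides) plus 0.15 g BreakThru OE-446 per 500 g. Bud development scored on a stage scale from closed buds to fully open flowers.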

Assay [3] deals with Grape, type Pinot Noir (C4). Description: Greenhouse test, cut wine sprouts C4 dipped in test solution, bud development stage. It counts as in vivo, Vitis vinifera subsp. vinifera. Set-up: key to Bud development stage, wine sprouts C4: Stage 0: Buds unchanged; Stage 1: Buds slightly swollen, first green tips visible; Stage 2: strongly swollen, green buds; Stage 3: Buds before breaking open, leaf or flower root already visible; Stage 4: Flower buds fully developed, but still closed, white petals already visible. In the case of the grapevine, stage 4 was the unfolding of the first leaves; Stage 5: Flowers fully open or, in the case of grapevine, unfolding of the flower roots (“Gescheine”) on the fully leafed sprouts. In short, it runs like this:
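Cut Pinot Noir grapevine sprouts were dipped in aqueous test solution (0.15 mol test substance, or 0.075 mol for bis-cyanamides, plus 0.15 g BreakThru OE-446 per 500 g total) and kept in water jars at about 22° C under natural light. Bud development was scored on a staged scale from closed buds to fully open flowers.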

The subject of assay [4] is table grapes types Bordon AR and Hammar AR. Put plainly: Field test E3 table grapes India, bud burst. Set-up: species or system Vitis vinifera. The note with it: in vivo. On the procedure: Three sections of a table grape plantation in India with types Bordon AR and Hammar AR were treated with the following spray mixtures during the dormancy phase:
E3-0: 600 liters per hectare of water with an addition of 0.1% Break-Thru® OE-446 E3-1: 600 liters per hectare of the spray mixture from example D-1 E3-18: 600 liters per hectare of the spray mixture from example D-18
As a result, the grapevine sprouts were evenly wetted.
After 30 and 45 days, respectively, bud burst was recorded numerically.
Budding means number of buds that have developed at least one leaf after n days, based on the total number of buds on the sprouts at time n=0 days (day of application of spray mixture).

Where [5] appears, read: T1 (14 d), 0.15 mol (A-14, A-15: 0.075 mol) per 500 g solution.
Setting [6] is: stage 4 reached or exceeded after 36 days vs negative control.

SMILES strings stand for the structures.

As for `CC(=O)NC#N.[Na]` [Example A-1, Sodium Acetylcyanamide], the “Bud development stage, apple branches C2” value in assay [1] (setting [5]) is reported as 0; in assay [1] (T2 (16 d)), 0; in assay [1] (T3 (21 d)), 1; in assay [1] (T4 (27 d)), 3; in assay [1] (T5 (36 d)), 5; in assay [1] (T6 (56 d)), 5. Also, the “Dormancy-breaking effect according to the definition, apple C2” value in assay [1] (setting [6]) is reported as “dormancy-breaking effect”. The “Bud development stage, cherry branches C3” value in assay [2] (setting [5]) is given as 1; in assay [2] (T2 (16 d)) it was 2; in assay [2] (T3 (21 d)), 5; in assay [2] (T4 (27 d)), 5; in assay [2] (T5 (36 d)), 5; in assay [2] (T6 (56 d)), 5. In addition, the “Good to very good dormancy-breaking effect, cherry C3” value in assay [2] (stage 4 reached or exceeded after 21 days vs negative control) was “good to very good dormancy-breaking effect”. Further, in assay [2] (stage 4 reached or exceeded after 27 days vs negative control), the “Dormancy-breaking effect according to the definition, cherry C3” value is reported as “dormancy-breaking effect”. The “Bud development stage, wine sprouts C4” value in assay [3] (setting [5]) is on record as 0; in assay [3] (T2 (16 d)), 0; in assay [3] (T3 (21 d)), 0; in assay [3] (T4 (27 d)), 1; in assay [3] (T5 (36 d)) it was 4; in assay [3] (T6 (56 d)), 5. Besides, the “Dormancy-breaking effect according to the definition, wine C4” value in assay [3] (setting [6]) is recorded as “dormancy-breaking effect”. Further, the “Effectiveness compared with prior art treatment with cyanamide” value in assay [4] is listed as “at least as effective as the prior art treatment with cyanamide”.

Source of the values: patent US20220400680A1, “USE OF ACYLCYANAMIDES OR SALTS THEREOF FOR REGULATING PLANT GROWTH” (Alzchem Trostberg GmbH, priority 2019, published 2022).
